A short description of the series: Human HepG2 cell viability assay in 384 well format. Format: toxicity, cell-based. Also noted: dose 125 nL, time 70.5 hour; concentration not given beside the values. The following applies: HepG2 cells, read-out: Inhibition.

This passage reports cytotoxicity results from ChEMBL document CHEMBL3507680, “University of Dundee, Gates Library screen for HepG2 cell viability”.

Turning to `Cc1nc(C)c(COc2ccc(S(=O)(=O)N(C)C)cc2)s1`, the cytotoxicity at 70.5 h is -22.5%.

For the compound `O=C(Cn1cc(I)cn1)N1CCNC1=O`, the cytotoxicity at 70.5 h was -8.59%.

On to `CN(CCNC(=O)Nc1cnn(C)c1)Cc1ccc(F)cc1`, for which the cytotoxicity at 70.5 h was -20.9%.

As for `CN(CCNC(=O)Nc1ccn(C)n1)Cc1ccc(F)cc1`, the cytotoxicity at 70.5 h was -22.5%.

For the compound `Cc1cc(C(=O)NCCN2CCCCC2C)nn1C(C)(C)C` (stereo not drawn), the cytotoxicity at 70.5 h is -10.9%.

With `CC(C)(C)c1nc(CN2CCCC2c2nnc3ccccn23)no1` (stereo not drawn), the cytotoxicity at 70.5 h is -22.6%.

As to `Cc1cc(C2CCCN(CCc3ccc4c(c3)CCO4)C2)n[nH]1` (stereo not drawn), the cytotoxicity at 70.5 h was -8.81%.

Consider `CN(CCc1ccccc1)c1cnn(C)c(=O)c1Br`, for which the cytotoxicity at 70.5 h was -15.5%.

Take `CCOCC(=O)Nc1nccn1Cc1ccc(Br)cc1`: the cytotoxicity at 70.5 h was -5.58%.

`CN1CCN(c2ccc(CO)cc2F)CC1`: the cytotoxicity at 70.5 h was -8.87%.

Turning to `COc1cccc(CC2CCCN2CC(N)=O)c1` (stereo not drawn), the cytotoxicity at 70.5 h is -8.71%.

Consider `CC(=O)NC1CCCN(Cc2ccc(-n3ccnc3)cc2)C1` (stereo not drawn), for which the cytotoxicity at 70.5 h was -4.74%.

In the case of `COc1cccc(C(O)CN2CCN(C(=O)c3ccsc3)CC2)c1` (stereo not drawn), the cytotoxicity at 70.5 h was -5.91%.

On to `Cn1ccc(NC(=O)NC2CCCN(c3ccccc3Cl)C2=O)n1` (stereo not drawn), for which the cytotoxicity at 70.5 h is -0.238%.

Consider `Cc1ccc(N2CCCC(NC(=O)Nc3cnn(C)c3)C2=O)cc1` (stereo not drawn), for which the cytotoxicity at 70.5 h turned out to be 9.02%.

Turning to `CC(C)c1ccc(-n2cc(O)c(C(=O)N3CCC(C(N)=O)CC3)n2)cc1`, the cytotoxicity at 70.5 h amounted to 0.806%.

With `Cc1cc(NC(=O)N(CCC#N)CCCN(C)C)ccc1F`, the cytotoxicity at 70.5 h is -2.44%.

As for `COCC(=O)Nc1nccn1Cc1ccc(Br)cc1`, the cytotoxicity at 70.5 h was -0.968%.

Turning to `NC(=O)CCNC(=O)NCC1(c2ccccc2Cl)CCC1`, the cytotoxicity at 70.5 h was -2.77%.

With `CNC(=O)c1[nH]nc2ccc(I)cc12`, the cytotoxicity at 70.5 h is -3.31%.

Take `CCc1nnc(CN2CCC(C3CCCCCN3C(=O)C3CC3)CC2)o1` (stereo not drawn): the cytotoxicity at 70.5 h is -1.17%.

As to `Cn1cc(NC(=O)NC2CCCN(c3ccccc3Cl)C2=O)cn1` (stereo not drawn), the cytotoxicity at 70.5 h was -5.63%.

As for `N#CCCCN1CCCC1Cc1ccccc1` (stereo not drawn), the cytotoxicity at 70.5 h was -3.84%.

For `COc1ccc(-c2noc(C(CC(C)C)N3CCCCC3=O)n2)cn1` (stereo not drawn), the cytotoxicity at 70.5 h was -0.898%.

For `Cc1cc(Br)ccc1C(=O)N(C)CCNS(C)(=O)=O`, the cytotoxicity at 70.5 h was -6.05%.

As to `COc1ccccc1C(C)CC(=O)N1CC[C@H](O)C1` (stereo partly drawn), the cytotoxicity at 70.5 h was -1.27%.

Turning to `Cc1nn(C)c(C)c1C1CCCN1C(=O)Cc1cn2ccsc2n1` (stereo not drawn), the cytotoxicity at 70.5 h is 23.9%.

For `Cc1nc(CN2CCCC(Nc3ncnc4c3CCC4)C2)no1` (stereo not drawn), the cytotoxicity at 70.5 h is -7.99%.

In the case of `Cn1nc(C(C)(C)C)cc1NC(=O)Cn1ccccc1=O`, the cytotoxicity at 70.5 h was -12%.

As to `CC(C)(C)c1nc(CN(Cc2cccs2)C2CCS(=O)(=O)C2)cs1` (stereo not drawn), the cytotoxicity at 70.5 h is -2.81%.

On to `Cc1ccsc1CNC(=O)c1ccc(N2CCOC2=O)cc1`, for which the cytotoxicity at 70.5 h was -7.71%.

With `N#Cc1ccc(N2CCCN(CC(=O)N3CCOCC3)CC2)cc1`, the cytotoxicity at 70.5 h came out at 21.1%.

`CC(NC(=O)NCCN1CCCCCC1=O)c1ccc(Cl)s1` (stereo not drawn): the cytotoxicity at 70.5 h was -10.6%.

Turning to `N#Cc1ccc(N2CCCN(CC(=O)N3CCNC(=O)C3)CC2)cc1`, the cytotoxicity at 70.5 h turned out to be 3.9%.

Take `COCCN1CCC(CNC(=O)C2(NC(C)=O)CCCCC2)CC1`: the cytotoxicity at 70.5 h is -8.37%.

In the case of `CNC(=O)CN1CCC(NC(=O)Cc2ccccc2OC(C)C)CC1`, the cytotoxicity at 70.5 h was -10.8%.

With `Cc1ccccc1C1(CNC(=O)c2ccc(S(C)(=O)=O)cc2)CC1`, the cytotoxicity at 70.5 h was 3.63%.

As for `CCn1c(CN(C)CC(=O)N(C)C)nc2c(F)cccc21`, the cytotoxicity at 70.5 h was -11.7%.

As to `CC1CN(C(=O)c2cscn2)c2ccccc2S1` (stereo not drawn), the cytotoxicity at 70.5 h is 21%.

With `Cc1nc(C(=O)N2CC(C)Sc3ccccc32)cs1` (stereo not drawn), the cytotoxicity at 70.5 h is -7.31%.

For the compound `OCC(O)CSCc1cn(-c2ccc(Cl)cc2)nn1` (stereo not drawn), the cytotoxicity at 70.5 h was found to be 0.0879%.

As for `CN(Cc1cccs1)C(=O)CN(C)C1CCc2ccccc21` (stereo not drawn), the cytotoxicity at 70.5 h was -7.67%.

For the compound `COCCN1CCC(CNC(=O)C2(C#N)CCCC2)CC1`, the cytotoxicity at 70.5 h was determined as 17.6%.

Consider `Cc1nc(C)n(Cc2cccc(NC(=O)N(C)CCC(C)O)c2)n1` (stereo not drawn), for which the cytotoxicity at 70.5 h was -7.61%.

On to `CCC1(CNCc2ncc[nH]2)CCCC1`, for which the cytotoxicity at 70.5 h was -13.3%.

`O=C(c1ncoc1-c1ccco1)N1CCCN(c2ncccn2)CC1`: the cytotoxicity at 70.5 h is -12.9%.

Take `CN(Cc1ccc(Cl)s1)C(=O)CN(C)C1CCc2ccccc21` (stereo not drawn): the cytotoxicity at 70.5 h was -13.1%.

Turning to `CNC(=O)N1C[C@H]2N(c3ncccn3)CCC[C@@]2(C(=O)NCC2CC2)C1`, the cytotoxicity at 70.5 h turned out to be 0.471%.

Consider `CC(C)Nc1ncnc2c1CCN(C(=O)NCc1cccc(F)c1)CC2`, for which the cytotoxicity at 70.5 h was -7.17%.

Consider `CO[C@@H]1CO[C@@]2(CCCN(C(=O)C3CC=CC3)C2)C1`, for which the cytotoxicity at 70.5 h was -1.96%.

As to `O=C(NCc1ccccn1)[C@@]12CCO[C@@H]1CCN(c1ncccn1)C2`, the cytotoxicity at 70.5 h is -4.87%.

Take `CC(=O)N1CCC2(CC1)c1ncc(-c3cccnc3)n1CCN2C`: the cytotoxicity at 70.5 h was determined as 0.401%.

`CC(=O)N1CCC2(CC1)c1ncc(-c3ccccc3)n1CCN2C`: the cytotoxicity at 70.5 h was -9.38%.

Consider `O=C(c1ccco1)N1CCC2(CCCN(c3ncc(F)cn3)C2)C1` (stereo not drawn), for which the cytotoxicity at 70.5 h worked out at 13.2%.

Take `CCCS(=O)(=O)N1C[C@@H](c2ccccc2)[C@@]2(CCNC2=O)C1`: the cytotoxicity at 70.5 h amounted to 5.81%.

As for `CC(C)Nc1nc(-c2ccccc2)nc2c1CCN(C(=O)CC#N)CC2`, the cytotoxicity at 70.5 h is -3.92%.

`COCC(=O)N1CCc2nc(NC(C)C)nc(NC(C)C)c2CC1`: the cytotoxicity at 70.5 h is -0.713%.

On to `CC(=O)N1CCO[C@@H]2CN(S(=O)(=O)C3CC3)C[C@@H]2C1`, for which the cytotoxicity at 70.5 h is -0.958%.

Take `CCOC[C@@]12CCC[C@@H]1CN(C(=O)COc1ccccc1OC)C2`: the cytotoxicity at 70.5 h was -8.07%.

For the compound `O=C(N[C@@H]1CN(Cc2ccoc2)C[C@@H]2CCCO[C@@H]21)C1CCC1`, the cytotoxicity at 70.5 h was -11.2%.

`CC(=O)N1CCOC2(CCN(C(=O)C3CC3)CC2)C1`: the cytotoxicity at 70.5 h is -10.3%.

Consider `Cn1nnc2c1C(COCC1CC1)CN(C(=O)CC1=CCCCC1)C2` (stereo not drawn), for which the cytotoxicity at 70.5 h was -2%.

For the compound `Cc1nc(C)c2c(n1)CCN(C(=O)C1(C#N)CC1)CC2`, the cytotoxicity at 70.5 h was -1.89%.

For `COc1nn(C)c2c1CCCN(C(=O)c1c[nH]cn1)C2`, the cytotoxicity at 70.5 h was -1.78%.

Turning to `Cn1nc(C#N)c2c1CN(C(=O)c1c[nH]cn1)CCC2`, the cytotoxicity at 70.5 h was -7.05%.

`Cc1nc2c(c(NC3CC3)n1)CCN(C(=O)C1(C#N)CC1)CC2`: the cytotoxicity at 70.5 h is -16.3%.

In the case of `COCC1CN(S(=O)(=O)c2ccccc2)Cc2ncnn2C1` (stereo not drawn), the cytotoxicity at 70.5 h was -6.59%.

For `COCC1CN(S(=O)(=O)c2cccs2)Cc2ncnn2C1` (stereo not drawn), the cytotoxicity at 70.5 h was -12.8%.

For `Cc1ccc(N2CCCC3(CCN(C(=O)CC(F)(F)F)C3)C2)nn1` (stereo not drawn), the cytotoxicity at 70.5 h was -10.2%.

As for `CCN1CCC2(CC1)CC(NC(=O)c1c[nH]cn1)c1ccccc1O2` (stereo not drawn), the cytotoxicity at 70.5 h is -6.71%.

On to `CCOCC1CN(S(=O)(=O)C2CC2)Cc2nn(C)cc21` (stereo not drawn), for which the cytotoxicity at 70.5 h is -5.98%.

Consider `Cc1nc([C@@H]2C[C@H]3CN(Cc4ccc5c(c4)OCO5)C[C@H]3O2)no1`, for which the cytotoxicity at 70.5 h was -10.1%.

For `CN(C)CC(=O)N1Cc2nnn(C)c2C(COCC2CC2)C1` (stereo not drawn), the cytotoxicity at 70.5 h was -11.8%.

Turning to `Cn1nnc2c1C(COCC1CC1)CN(C(=O)C1=CCCC1)C2` (stereo not drawn), the cytotoxicity at 70.5 h is -9.91%.

Consider `O=C(NC1CCc2c(ccc(=O)n2CC2CC2)C1)c1cscn1` (stereo not drawn), for which the cytotoxicity at 70.5 h is 18.1%.

`CCc1nnc(CN2CCC(C3CCCCCN3C(C)=O)CC2)o1` (stereo not drawn): the cytotoxicity at 70.5 h was determined as 8.88%.

In the case of `Cc1nccc(NCc2cncc3c2CCN(S(C)(=O)=O)C3)n1`, the cytotoxicity at 70.5 h came out at 1.9%.

With `CN(Cc1ccco1)Cc1cncc2c1CCN(Cc1ccoc1)C2`, the cytotoxicity at 70.5 h was -8.02%.

`CN1CCc2c(CNC(=O)c3nccn3C)cncc2C1`: the cytotoxicity at 70.5 h was -0.526%.

On to `Cc1noc(C)c1CN1CCC2(CC1)NC(=O)CC2c1ccccc1` (stereo not drawn), for which the cytotoxicity at 70.5 h is 2.78%.

On to `Cc1ccc(CN2CCC3(CC2)C(c2ccccc2)CC(=O)N3C)o1` (stereo not drawn), for which the cytotoxicity at 70.5 h amounted to 0.715%.

For the compound `CS(=O)(=O)N1CC[C@H]2OCC[C@@]2(C(=O)NCc2ccccn2)C1`, the cytotoxicity at 70.5 h is -2.32%.

Turning to `CCn1ncc2c1C(COC)N(C(=O)CCc1ccccc1)CC2` (stereo not drawn), the cytotoxicity at 70.5 h was determined as 11.6%.

With `CN1CCCN(C(=O)c2ccnn2-c2ccc3ccccn23)CC1`, the cytotoxicity at 70.5 h came to 12.9%.

For the compound `O=C([C@H]1CCCO1)N1CCN(CCn2cccn2)c2ncccc2C1`, the cytotoxicity at 70.5 h is -5.29%.

As for `Cc1cnc(CNC(=O)[C@@]23CCO[C@@H]2CCN(C2CCCC2)C3)cn1`, the cytotoxicity at 70.5 h is -1.73%.

Turning to `O=C(C1CCOC1)N1CCN(CCn2cccn2)c2ncccc2C1` (stereo not drawn), the cytotoxicity at 70.5 h is -1.8%.

On to `Cc1oncc1C(=O)N[C@@H]1CN(C2CCC2)C[C@@H]2CCCO[C@@H]21`, for which the cytotoxicity at 70.5 h is -0.67%.

`O=C(COC[C@]12COC[C@H]1CN(C1CCC1)C2)N1CCCC1`: the cytotoxicity at 70.5 h was determined as 3.04%.

As to `CN(C)C1CCN(C(=O)c2ccnn2-c2ccc3ccccn23)CC1`, the cytotoxicity at 70.5 h was -5.01%.

Regarding `CC(C)CNC(=O)N1CCC2(CC1)OC(C(N)=O)Cn1ccnc12` (stereo not drawn), the cytotoxicity at 70.5 h is -4.1%.

With `O=C(c1ccc2[nH]ccc2c1)N1CC[C@@H]2CN(CC3CC3)CCO[C@@H]2C1`, the cytotoxicity at 70.5 h is -7.61%.

Take `O=C(NC1CC1)[C@@H]1CCO[C@@H]2CCN(CC3CCC3)C[C@@H]21`: the cytotoxicity at 70.5 h was -11.4%.

Take `COCCN1CCOCC2(CCN(c3cnccn3)CC2)C1`: the cytotoxicity at 70.5 h was found to be 8.46%.

For `Cc1ccc(CN2CCC[C@]3(C(=O)O)CN(C)C[C@@H]3C2)s1`, the cytotoxicity at 70.5 h was -14.3%.

For the compound `COCCN1CCC2(CC1)CC(N1CCOCC1)c1cc(C)ccc12` (stereo not drawn), the cytotoxicity at 70.5 h was 4.82%.

As for `c1cncc(COCc2cncc3c2CCN(Cc2ccoc2)C3)c1`, the cytotoxicity at 70.5 h is -9.45%.

For the compound `CC(C)N1[C@H](Cn2cncn2)C[C@@H]2CN(Cc3nccn3C)CC[C@@H]21`, the cytotoxicity at 70.5 h was -6.18%.
